# Patent US11253015B2, “Methods and devices for preventing viral transmission” (priority 2020, dated 2022)
# Where two headings read alike, the source gives them in different places.
# Tests used:
# HUVEC cells [1] = test: EF-induced reorientation of endothelial cells (orientation index Oi); type: cell-based, human
# Experimental: A series of images was taken with an image analyser immediately before EF exposure and at 4, 8 and 24 hours of EF exposure. Cell orientation was quantified as an orientation index (Oi), which is defined as Oi=cos 2(α), where a is the angle formed by the long axis of a cell with a line drawn perpendicular to the field lines. A cell with its long axis parallel to the vector of the EF will have an Oi of −1, and a cell with its long axis exactly perpendicular to the EF vector will have an Oi of +1. A randomly oriented population of cells will have an average Oi {defined as [Σn cos 2(α)]÷n} of 0. The significance of this two-dimensional orientation distribution against randomness was calculated using Rayleigh's distribution. A long:short axis ratio was calculated for assessment of elongation.
# Cell alignment was quantified using an orientation index Oi=cos 2(α), where α is the angle formed between the long axis of a cell and a line drawn perpendicular to the field lines. In cells oriented perpendicular to the field vector, the Oi is +1, cells parallel to the field vector give an Oi of −1 and random orientation gives an Oi of 0.
# HUVEC cells [2] = test: EF-induced elongation of endothelial cells (long:short axis ratio); type: cell-based, human; settings: for long:short axis ratio in EF-treated cells: inhibitor present during EF
# Experimental: HUVEC cells were seeded in a trough formed by two parallel (1 cm apart) strips of glass coverslip (No. 1, length of 22 mm) fixed to the base of the dish with silicone grease. Scratch lines were made perpendicular to the long axis of the chamber with a fine sterile needle and used as reference marks for directed cell migration. Cells were incubated for 24-48 hours (37° C., 5% CO2) before a roof coverslip was applied and sealed with silicone grease. The final dimensions of the chamber, through which current was passed, were 22×10×0.2 mm. Agar-salt bridges not less than 15 cm long were used to connect silver/silver-chloride electrodes in beakers of Steinberg's solution (58 mM NaCl, 0.67 mM KCl, 0.44 mM Ca(NO3)2, 1.3 mM MgSO4, 4.6 mM Trizma base, pH 7.8-8.0), to pools of excess culture medium at either side of the chamber. Field strengths were measured directly at the beginning of, the end of and during each experiment. No fluctuations in field strength were observed. […] (50 μM), the Rho kinase inhibitor Y27632 (50 μM), both Akt and Rho kinase inhibitors (10 μM each) or latrunculin (50 nM) for 1 hour before EF stimulation. The same concentration of drug was present during EF exposure in a CO2 incubator.
# A series of images was taken with an image analyser immediately before EF exposure and at 4, 8 and 24 hours of EF exposure. Cell orientation was quantified as an orientation index (Oi), which is defined as Oi=cos 2(α), where a is the angle formed by the long axis of a cell with a line drawn perpendicular to the field lines. A cell with its long axis parallel to the vector of the EF will have an Oi of −1, and a cell with its long axis exactly perpendicular to the EF vector will have an Oi of +1. […] The significance of this two-dimensional orientation distribution against randomness was calculated using Rayleigh's distribution. A long:short axis ratio was calculated for assessment of elongation.
# HUVEC cells elongated dramatically in an EF. […] We quantified the elongation of the cells using a long:short axis ratio. […]
# [3] = system: HaCaT human keratinocytes; test: scratch assay, keratinocyte migration (culture inserts, time-lapse microscopy); type: cell-based
compound,measurement,setting,value
1-L-6-hydroxymethyl-chiro-inositol 2-[(R)-2-O-methyl-3-O-octadecylcarbonate] [Akt inhibitor],orientation response,"HUVEC cells [1]; inhibitor 50 μM, 1 hour before and during EF",significantly decreased the orientation response
same,long:short axis ratio in EF-treated cells,HUVEC cells [2],significantly decreased the long:short axis ratio
"COc1cc([C@@H]2c3cc4c(cc3[C@H](O)[C@H]3COC(=O)[C@@H]23)OCO4)cc(OC)c1OC [IGF-1R inhibitor, picropodophyllin]","increased keratinocyte migration observed with LLEC, with IGF-1R inhibitor",[3]; 50 nM picropodophyllin just prior to scratch assay,attenuated the increased keratinocyte migration
C/C1=C/C(=O)O[C@@H]2C[C@@H](CC[C@H](C)/C=C\C=C\CC1)O[C@@](O)([C@@H]1CSC(=O)N1)C2 [Latrunculin A],orientation response,"HUVEC cells [1]; latrunculin 50 nM, 1 hour before and during EF",suppressed the orientation response significantly
same,EF-induced elongation response,HUVEC cells [2]; latrunculin 50 nM,completely abolished
CC(=O)N[C@@H](CS)C(=O)O [N-Acetyl Cysteine],"increased migration observed with LLEC, with N-Acetyl Cysteine","[3]; 5 mM, 1 h pretreatment before scratch assay",failed to reproduce the increased migration
N#CC(=C(/N)Sc1ccccc1N)/C(C#N)=C(\N)Sc1ccccc1N [U0126],orientation response,HUVEC cells [1],decreased the orientation to a similar extent
C[C@@H](N)[C@H]1CC[C@H](C(=O)Nc2ccncc2)CC1 [Y27632],Oi (orientation index),HUVEC cells [1]; value in the sentence on U0126 (50 μM),0.33±0.03
same,long:short axis ratio in EF-treated cells,HUVEC cells [2],significantly decreased the long:short axis ratio
